Here are results for four compounds from paper PMC7854658, “Structural basis for ligand recognition of the neuropeptide Y Y2 receptor” (Nature Communications, 2021).

Where two headings read alike, the source gives them in different places.

In assay [1] the target is Y2R mutant Y110^2.64A (hY2R_eYFP_pVitro2) (human) (UniProt P49146).
For assay [2], the target named is wild-type human Y2R with C-terminal eYFP (hY2R_eYFP_pVitro2) (human) (UniProt P49146).
The target of assay [3] is Y2R mutant D292^6.59N (hY2R_eYFP_pVitro2) (human) (UniProt P49146).
Assay [4] concerns the target Y2R mutant Q130^3.32H (hY2R_eYFP_pVitro2) (human) (UniProt P49146).
The subject of another assay is Y2R. Also on record: method as in earlier work. The settings on record: ref Swanson, D.M. et al., Bioorg. Med. Chem. Lett. 21:5552-5556, 2011; read-out: Y2R affinity IC50; cited from earlier work.
A further assay concerns the target T1, Y2R mutant Q130^3.32H (Homo sapiens, UniProt P49146, Q130H).
T1 construct: expressed in transfected cells; host or cells: HEK293
Kind of assay: NPY-induced IP accumulation (IP-One), mutant. It counts as cell-based. To be noted: 1 μM antagonist. How it is done: The plasmid hY2R_eYFP_pVitro2 encoding the WT Y2R and a fluorophore for investigating the receptor localization was used as template for the generation of receptor point mutations as previously described. Mutagenesis PCR was performed using the Phusion High-Fidelity Polymerase (Thermo Fisher Scientific, Waltham, MA, USA). […] The preparations of the plasmid DNA were performed using the Wizard plus Mini or Midi DNA purification kit (Promega, Madison, WI, USA).
(§1) To determine the contribution of residues to antagonist binding, IP-One accumulation assays (Cisbio, Codolet, France) were performed. HEK293 cells were seeded into six-well plates and transiently cotransfected with 3200 ng of receptor plasmid DNA and 800 ng of the chimeric G protein (Gα∆6qi4myr) to redirect the Gαi signaling pathway to the Gαq phospholipase C pathway. Transient transfection was carried out using Metafectene as transfection reagent according to the manufacturer’s protocol (Biontex, Munich, Germany) over night. The cells were then reseeded into white 384-well microplates (Greiner Bio-One, Kremsmünster, Austria) at a density of 15,000 cells per well and grown for additional 24 h.
All dilutions were performed in HBSS containing 20 mM LiCl (stimulation buffer) and DMSO with a final concentration of 0.01%.
To determine the amount of cellular IPs, the FRET acceptor (IP1-d2) and the FRET donor (anti-IP1-Cryptate) were reconstituted and diluted in lysis and detection buffer (1:20) as described in the manufacturer’s protocol. Three microliters of both solutions were added, and the cells were incubated on a tumbler for 60 min.

For assay [5], the target named is T2, wild-type Y2R (Homo sapiens, UniProt P49146).
T2 construct: expressed in transfected cells; host or cells: HEK293
T2 sequence (P49146 1-381): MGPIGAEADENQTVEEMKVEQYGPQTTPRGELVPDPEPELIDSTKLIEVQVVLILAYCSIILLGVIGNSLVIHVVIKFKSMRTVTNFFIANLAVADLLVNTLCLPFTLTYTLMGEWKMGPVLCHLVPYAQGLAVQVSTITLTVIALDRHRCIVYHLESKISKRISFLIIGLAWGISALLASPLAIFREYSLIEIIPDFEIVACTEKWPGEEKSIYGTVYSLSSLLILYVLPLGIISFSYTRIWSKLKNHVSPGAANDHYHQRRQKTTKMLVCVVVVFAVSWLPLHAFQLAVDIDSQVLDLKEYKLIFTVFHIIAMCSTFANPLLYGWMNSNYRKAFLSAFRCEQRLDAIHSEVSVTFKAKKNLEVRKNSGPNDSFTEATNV
Kind of assay: Dose-dependent inhibition of NPY (0.3 nM)-induced IP accumulation. It counts as cell-based. To be noted: read-out: pIC50 ± SEM, inhibition of NPY-induced IP accumulation (converted). How it is done: To determine the contribution of residues to antagonist binding, IP-One accumulation assays (Cisbio, Codolet, France) were performed. […] The cells were then reseeded into white 384-well microplates (Greiner Bio-One, Kremsmünster, Austria) at a density of 15,000 cells per well and grown for additional 24 h. […] Three microliters of both solutions were added, and the cells were incubated on a tumbler for 60 min.

Assay [6] deals with T3, Y2R crystallization construct without flavodoxin in ICL3 (construct_no flavodoxin) (Homo sapiens, UniProt P49146, H149Y/S280C).
T3 construct: expressed in transfected cells; host or cells: HEK293
The assay is described as above. It counts as cell-based. To be noted: read-out: pIC50 ± SEM, inhibition of NPY-induced IP accumulation (converted). The method, then: as §1, with “([…])” for “(Gα∆6qi4myr)”, “manufacturer's” for “manufacturer’s”, “h. […] The cells were stimulated at 37 °C and 5% CO2 in humidified atmosphere for 90 min. The exact value of the effective concentration (ECx) at the day of the assay was determined by control curves in the absence of antagonist. To determine the amount of cellular IPs, the FRET acceptor (IP1-d2) and the FRET donor (anti-IP1-Cryptate) were reconstituted and diluted in lysis and detection buffer (1:20) as described in the manufacturer's protocol. Three microliters of both solutions were added, and the cells were incubated on a tumbler for 60 min.” for “h.”

Assay [7] addresses T2, wild-type Y2R. Kind of assay: NanoBRET-based binding assay (K18(TAMRA)-NPY). To be noted: read-out: pIC50 ± SEM, NanoBRET binding (converted). How it is done:
(§2) For this purpose, a Nanoluciferase[44] (Promega, Madison, WO, USA) followed by a flexible […] terminus of the receptor in an Y2-eYFP_N1 vector[45]. The Nanoluciferase replaced the similarly sized N-terminal T4L fusion in the crystallization construct. To facilitate correct expression of this large N-terminal domain and export to the plasma membrane, a signal sequence of human interleukin 6 ([…]) was used[44]. HEK293 cells were transiently transfected with 8 μg of the corresponding vectors per T75 flask using MetafectenePro (Biontex) following the manufacturer's instructions. Twenty-four hours post transfection, the cells were harvested in PBS (-Ca^2+; -Mg^2+) and frozen (-80 °C). The membranes were prepared as described previously. Briefly, the cells were lysed in a hypotonic TRIS buffer (50 mM Tris-HCl, pH 7.5 and 50 μM Pefabloc SC) and homogenized using a manual dounce homogenizer for 15 times. Nuclei and cell debris was removed by centrifugation at 820 × g for 10 min (4 °C), and the microsomal membranes in the supernatant were collected by centrifugation at 20,000 × g for 60 min (4 °C). […] The total protein amount was determined by a Bradford assay. The membrane preparations were stored in aliquots at -80 °C. […] Directly before the measurement, 10 μl coelenterazine H in HBSS/HEPES was added to a final concentration of 4 μM. […] The BRET ratio was calculated by the ratio of F/L, and corrected by the background values. The IC50 values were determined using a three-parameter logistic fit in the GraphPad Prism 5 software (GraphPad Software, San Diego, CA, USA).
For orientation: Bioluminescence resonance energy transfer reports proximity on the nanometre scale.

Assay [8] deals with T4, modified Y2R used for crystallization without N-terminal T4L (Construct_no T4L) (Homo sapiens, UniProt P49146, DEL251-256/H149Y/S280C).
T4 construct: eYFP (from the vector name) (C); expressed in transfected cells; host or cells: HEK293 (membrane preparations)
Description: NanoBRET-based binding assay (K18(TAMRA)-NPY). To be noted: 300 nM K18(TAMRA)-NPY. How it is done: as §2

Another assay concerns NPY receptors. The settings on record: cited from earlier work.

T4 sequence (P49146 with tags, fused parts or gaps H149Y/DEL251-256/S280C): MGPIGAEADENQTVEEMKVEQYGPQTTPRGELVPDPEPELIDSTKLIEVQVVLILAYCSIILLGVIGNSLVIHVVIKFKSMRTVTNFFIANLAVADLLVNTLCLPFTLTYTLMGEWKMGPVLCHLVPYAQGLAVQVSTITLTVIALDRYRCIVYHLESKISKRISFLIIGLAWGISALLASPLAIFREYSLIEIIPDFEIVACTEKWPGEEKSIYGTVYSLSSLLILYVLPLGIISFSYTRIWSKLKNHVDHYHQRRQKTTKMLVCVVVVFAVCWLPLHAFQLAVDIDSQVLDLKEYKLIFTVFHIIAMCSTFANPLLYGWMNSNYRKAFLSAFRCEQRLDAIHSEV
T3 sequence (P49146 1-353 H149Y/S280C): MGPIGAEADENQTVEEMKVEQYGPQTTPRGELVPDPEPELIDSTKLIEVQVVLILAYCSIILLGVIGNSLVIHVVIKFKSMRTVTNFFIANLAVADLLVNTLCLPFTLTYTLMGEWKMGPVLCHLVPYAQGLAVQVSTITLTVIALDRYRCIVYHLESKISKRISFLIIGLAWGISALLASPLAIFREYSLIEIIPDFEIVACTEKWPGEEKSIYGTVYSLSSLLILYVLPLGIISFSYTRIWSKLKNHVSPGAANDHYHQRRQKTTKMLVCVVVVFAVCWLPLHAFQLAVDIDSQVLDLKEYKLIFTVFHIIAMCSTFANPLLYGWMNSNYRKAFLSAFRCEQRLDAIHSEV
T1 sequence (P49146 whole entry Q130H): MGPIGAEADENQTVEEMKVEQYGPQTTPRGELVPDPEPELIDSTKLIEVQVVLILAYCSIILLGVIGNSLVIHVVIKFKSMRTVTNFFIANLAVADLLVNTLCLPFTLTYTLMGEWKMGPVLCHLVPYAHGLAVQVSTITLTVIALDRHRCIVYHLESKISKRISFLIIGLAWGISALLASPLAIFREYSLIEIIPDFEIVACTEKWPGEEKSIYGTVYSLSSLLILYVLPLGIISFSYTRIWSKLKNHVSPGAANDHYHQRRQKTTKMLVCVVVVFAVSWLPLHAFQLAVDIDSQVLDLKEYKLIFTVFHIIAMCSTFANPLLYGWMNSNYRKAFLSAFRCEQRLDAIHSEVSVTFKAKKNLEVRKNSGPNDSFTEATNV

“neuropeptide Y (NPY) (from UniProt P01303 29-64)”: the values for the EC50 of NPY-induced IP accumulation (IP-One assay, HEK293 cells with chimeric G protein) in assay [1] and in assay [2] were 1.8 nM and 0.06 nM, respectively. For the same compound, the fold change of the EC50 of NPY in triggering Y2R signaling (IP accumulation) against the wild-type Y2R in [3] worked out at 233 fold. In assay [4], this compound had a fold change of the EC50 of NPY-induced receptor signaling (IP accumulation) against the wild-type Y2R of 132 fold.
As to `CCN(CC)C(=O)C(c1ccccc1)N1CCN(c2ccc(NC(=O)c3ccccc3-c3cccnc3)cc2F)CC1` (single isomer, unassigned) [S-isomer], the IC50 in the assay with Y2R is 14 ± 3 nM.
For `CCN(CC)C(=O)C(c1ccccc1)N1CCN(c2ccc(NC(=O)c3ccccc3-c3cccnc3)cc2F)CC1` (single isomer, unassigned) [R-isomer], the IC50 in the assay on Y2R is 9 ± 2 nM.
For `CCN(CC)C(=O)C(c1ccccc1)N1CCN(c2ccc(NC(=O)c3ccccc3-c3cccnc3)cc2F)CC1` (stereo not shown) [JNJ-31020028, N-(4-{4-[2-(diethylamino)-2-oxo-1-phenylethyl]piperazin-1-yl}-3-fluorophenyl)-2-pyridin-3-ylbenzamide], the “Antagonistic activity compared to WT (in words)” value at Y2R mutant Q130^3.32H was “increased antagonistic activity”. Besides, the IC50 on wild-type Y2R [5] is 47.9 nM; in assay [6], 60.3 nM; at wild-type Y2R [7], 1.29 nM; in assay [8] (read-out: IC50, NanoBRET binding), 0.7 nM; in [8] (read-out: pIC50 ± SEM, NanoBRET binding (converted)), 0.676 nM. For the same compound, the “Higher binding affinity to Y2R over the other NPY receptors” value with NPY receptors is reported as “over 100 fold”.
